Assay results from patent US20250145693A1, “HERV-K ANTIBODY, CELL, VACCINE, AND DRUG THERAPEUTICS” (priority 2021, published 2025).

Tests used:
[1] = test system: HCT15, SW48 and HCT116 cells; assay: HERV-K expression in CRC cell lines; assay type: cell-based
From the text: The expression of HERV-K was detected in several CRC cell lines and tissues, but not in benign colon tissues. […] The forced overexpression of HERV-K with these agents that induce expression of HERV-K by innate immune response (Poly I:C treatment) or LTR hypomethylation (5-Aza) would provoke the cancer cells to increase production of a target that would make them more susceptible to targeted therapy to include targeted immunotherapy.

breast cancer cell lines [2] = assay: expression of HERV-K and signaling proteins after H2O2 or paclitaxel; assay type: cell-based, human; conditions: for expression of signaling proteins by immunoblot: paclitaxel (Tax, 0.1 μM) or H2O2 (5 μM or 10 μM), vs parent cells
breast cancer cell lines [3] = test system: breast cancer cell lines
[4] = test system: MDA-MB-231, Hs578T, and MCF-7 breast cancer cells; assay: proliferation and drug sensitivity of breast cancer cells after HERV-K KD; assay type: cell-based, human; conditions: for sensitivity of breast cancer cells toward drug: MCF-7 and Hs578T stably transduced with shRNAenv vs shRNAc or parent cells
From the text: Here, the inventors further determined the effects of HERV-K env gene KD in breast cancer cells treated with breast cancer chemotherapy drugs.

[5] = test system: MCF-7, HS578T, MDA-MB-231 cells; assay: transwell migration and invasion; assay type: cell-based, human; design: dose or concentration left out as unconfirmed
Experimental: The effects of KD of HERV-K env on migration and invasion were investigated using transwell plates. After transwell plates (8 μm) were rehydrated for 2 hours, 2.5×10^4 cells were seeded into the transwell and cultured. The transwell was then removed and the cells that had migrated into the lower chamber were counted. For the invasion assay, transwells were coated with Matrigel, and cells remaining in the upper chamber were removed with a cotton swab. The invaded cells on the reverse side of the Matrigel were counted under a light microscope (40× magnification) after the cells were fixed with methanol and stained with Giemsa. Ten random fields were counted. The average number of invaded cells per field was presented as mean±SD (n=10 fields). Triplicate assays were performed for each experiment.

[6] = test system: MCF-7 and Hs578T breast cancer cell lines; assay: cell cycle distribution by FACS; assay type: cell-based, human; conditions: Hs578T cells, especially in the shRNAenv cells
[7] = test system: HERV-K envelope surface fusion protein; assay: ELISA binding to HERV-K envelope surface fusion protein; design: species or system human
From the text: An ELISA assay was used to compare antigen binding sensitivity and specificity of hu6H5 vs. m6H5.

[8] = test system: ERVK6 and HERV-K envelope surface fusion protein; assay: immunoblot on HERV-K Env surface proteins; assay type: binding, human
HERV-K env protein = assay: antibody internalization; assay type: cell-based; conditions: 37° C., 0, 5, 30, and 45 minutes; permeabilized cells
Experimental: To determine antibody internalization of humanized and murine antibodies, cells were incubated with HUM1 or m6H5 at 37° C. for different time intervals (0, 5, 30, and 45 minutes). At each time point, cells were fixed. Half of the cells were permeabilized and half were not permeabilized. Anti-human IgG 488 or anti-mouse IgG 488 was used to detect the percentages of antibody-bound HERV-K env protein that remained on the cell surface in the cells that were not permeabilized. A reduced surface expression of HERV-K positive cells was observed. The internalization of rate was determined in the cells that were permeabilized. The equation for the percentage of internalization at each point was 100−(% label at time 0).

MDA-MB-231 cells = assay: Live/dead cell viability assay; assay type: cell-based, human; conditions: 10 μg/ml, sixteen hours
Experimental: Live/dead cell viability assays were used to assess induction of cell death after anti-HERV-K antibody treatment. MDA-MB-231 cells were seeded overnight in 24-well plates. Cells were treated with various antibodies (10 μg/ml) and incubated for sixteen hours at 37C in a cell culture incubator. Calcein Am (4 μl/10 ml media) and Eth-D1 (20 μl/10 ml media), 200 μl per well, were then added and cells were incubated for thirty minutes at room temperature. EthD-1 penetrates cells with membrane damage and binds to nucleic acids to produce red fluorescence in dead cells. Live cells (green color; Calcein Am) and putative dead cells (red color; EthD-1) were identified using the co-stained Live/Dead Viability Assay. Human IgG or mouse IgG were used control.

4T1pLVXKenv tumors = assay: 4T1pLVXKenv combination treatment, Treg cells; assay type: in vivo, mouse; conditions: pLVXKenv vs pLVX; 6H5 once, IL2 for five days
Experimental: BALB/c mice were inoculated with 3×10^5 4T1pLVXKenv or 4T1pLVX cells on day 0. These mice were then treated: FIG. 23B with CpG (1.24 nmol), HERV-K SU protein (10 μg, 20 μg, and 20 μg), or CpG+ HERV-K SU protein on days 6, 13, and 19. Tumor weights were compared at week 4 post tumor cell inoculation; (FIG. 23C) with Aza (0.5 mg/kg) daily for five days in two weekly cycles, anti-PD-1 (200 μg per mouse every four days; four treatments), or Aza+anti-PD-1. Mice treated with PBS were used as controls, and tumor weights were compared among groups; and (FIG. 23D) with anti-HERV-K antibody (6H5; once) and with IL2 (for five days).

## Nc1ncn([C@@H]2O[C@H](CO)[C@@H](O)[C@H]2O)c(=O)n1 [5-Azacytidine]
[1]
  expression of HERV-K: Increased expression of HERV-K

## OO [H2O2, Hydrogen Peroxide]
Breast cancer cell lines [2]; 5 μM, HERV-K KD cells
  effect on shRNAenv-induced block in expression: reversed the shRNAenv-induced block in expression of HERV-K, HIF-1α, P-RSK, and P-ERK in a time-dependent manner
Breast cancer cell lines [2]; 25 μM and 50 μM
  expression at elevated concentrations: decreased expression of HERV-K and corresponding decreased HIF-1a and Ras/ERK signaling
Breast cancer cell lines [2]; 1-50 μM, three breast cancer cell lines
  protein expression at graded concentrations: enhanced expression of HERV-K, Ras, p-ERK, and HIF-1a proteins at H2O2 concentrations of 5 μM and 10 μM
Breast cancer cell lines [2]; 5 M, 0 hours to 48 hours, three breast cancer cell lines
  expression of HERV-K mRNA: elevated expression of HERV-K mRNA
Breast cancer cell lines [2]; 18 hours
  expression of HERV-K, p-MEK, and p-ERK by immunoblot: enhanced expression of HERV-K, p-MEK, and p-ERK
Breast cancer cell lines [2]; MDA-MB-231 cells
  expression of EMT markers: Increased expression of EMT markers including N-cadherin, vimentin, and Slug, and decreased expression of E-Cadherin
Breast cancer cell lines [2]
  expression of signaling proteins by immunoblot: increased expression of the breast cancer relevant signaling proteins HIF-1α, HERV-K, p-RSK, p-ERK, ERK, and Ras
Breast cancer cell lines [3]; 5 μM, after 96 hours
  cell proliferation: Significantly increased cell proliferation
Breast cancer cell lines [3]; after 48 hours for MDA-MB-231 and after 72 hours for MCF-7
  migration: increased migration

## COc1cccc2c1C(=O)c1c(O)c3c(c(O)c1C2=O)C[C@@](O)(C(=O)CO)C[C@@H]3O[C@H]1C[C@H](N)[C@H](O)[C@H](C)O1 [doxorubicin]
[4]
  sensitivity of breast cancer cells toward drug: Enhanced sensitivity

## CC(=O)O[C@H]1C(=O)[C@@]2(C)[C@H]([C@H](OC(=O)c3ccccc3)[C@]3(O)C[C@H](OC(=O)[C@H](O)[C@@H](NC(=O)c4ccccc4)c4ccccc4)C(C)=C1C3(C)C)[C@]1(OC(C)=O)CO[C@@H]1C[C@@H]2O [paclitaxel]
[4]
  sensitivity of breast cancer cells toward drug: Enhanced sensitivity
[4]; cells with HERV-K env KD by shRNAenv vs parent cells or shRNAc
  cell proliferation: Significantly reduced cell proliferation
[5]
  migration and invasion: Significantly reduced migration and invasion
[6]
  cell cycle arrest: G2 arrest
Breast cancer cell lines [2]
  expression of signaling proteins by immunoblot: increased expression of the breast cancer relevant signaling proteins HIF-1α, HERV-K, p-RSK, p-ERK, ERK, and Ras

## Poly I:C
[1]
  expression of HERV-K: Increased expression of HERV-K

B1: m6H5: murine anti-HERV-K monoclonal antibody (antibody, V domains shown)
VH: QVKLQQSGPDLVKPGASVKISCKASGYSFTGYYMHWVKQSHGKSLEWIGRVNPNSGGTSYNQKFKDKAILTVDKSSSTAYMELRSLTSEDSAVYYCARSKGNYFYAMDYWGQGTTVTVSS
VL: DIELTQSPASLAVSLGQRATISCRASESVDSHGTSFMHWYQQKPGQPPKFLIYRASNLESGIPARFSGSGSRTDFTLTINPVETDDVAIYYCQQSNEDPPTFGGGTKLEIK
[7]
  binding detected by the inventors using ELISA or Western blot assays: readily detected
[8]
  binding by immunoblot to two HERV-K Env surface proteins: shown by immunoblot to bind
HERV-K env protein
  internalized HERV-K positive cells: increased expression of internalized HERV-K positive cells
MDA-MB-231 cells
  dead cells (red fluorescence, EthD-1): red fluorescent cells were observed
4T1pLVXKenv tumors
  T regulatory (Treg) cells: Significantly decreased T regulatory (Treg) cells
